Laboratory results as given in US20040204357A1, “Modulator of the megalin-mediated uptake of radiotherapeutics and/or radiodiagnostics into kidney cells and their use in therapy and diagnostics” (priority 2003, published 2004).
Like-named read-outs stand apart in the source and are kept apart here. Square brackets hold non-standard residues; d marks the D form. Peptide text beside a SMILES is read from it. * marks the point of attachment. X1 = NCCCC[C@H](NC(=O)[C@H](CS)NC(=O)[C@H](CCCCN)NC(=O)[C@@H](N)CNC(=O)C*)C(N)=O; NMeF = CN[C@@H](Cc1ccccc1)C(=O)O; hCys = N[C@@H](CCS)C(=O)O

What was measured:
[1] = target: megalin (Homo sapiens, UniProt P98164); conditions: cited from earlier work
[2] = Biodistribution of radiopharmaceuticals in RAP-deficient mice and control strain C57BL/6J, organs, urine and faeces counted for radioactivity; type: in vivo; conditions: mouse, total radioactivity, single intravenous injection 1-2 μCi/animal, 24 hours post injection, n = 3; for tissue uptake at 24 h: kidneys; for dose excreted at 24 h: urine, read-out: Urine (% ID)
Protocol: In order to investigate, whether megalin and cubilin play a role in the renal uptake of radiopharmaceuticals into cells of the proximal tubule, in-vivo experiments with RAP-deficient mice (Jax®Mice, strain B6.129S7-Lrpap1^tmlHer) were carried out.
RAP is mainly located in the endoplasmatic reticulum where it is responsible for the proper folding and escort of megalin to the plasma membrane (Willnow, 1995). RAP also binds to other members of the LDL-receptor family, such as the receptor LRP (LDL-receptor related protein) which is not expressed in the kidneys but mostly in the liver and the brain. In RAP-deficient mice the megalin expression in the kidneys is reduced by about 80% (Bim, 2000) and also the cubilin expression is reduced by some extend. These mice are therefore a representative model to study the megalin dependence of the uptake of radiopharmaceuticals. There exist also megalin knock-out mice which have the disadvantage that only 2% of the bred animals survive to adulthood due to several malformations especially of the forebrain (Leheste, 1999).
RAP-deficient mice (stock #002987) and mice of the control strain C57BL/6J (Jax®Mice, stock #000664) were treated with a single intravenous injection (1-2 μCi/animal) of the following radiopharmaceuticals:
After 24 hours post injection the animals were killed and the organs as well as the collected urine and faeces counted for radioactivity. […]

[3] = B6.129S7-Lrpap1^tmlHer (RAP-deficient), RAP−/− (RAP-deficient) mice

Sequence of megalin (P98164 26-4655, species assumed): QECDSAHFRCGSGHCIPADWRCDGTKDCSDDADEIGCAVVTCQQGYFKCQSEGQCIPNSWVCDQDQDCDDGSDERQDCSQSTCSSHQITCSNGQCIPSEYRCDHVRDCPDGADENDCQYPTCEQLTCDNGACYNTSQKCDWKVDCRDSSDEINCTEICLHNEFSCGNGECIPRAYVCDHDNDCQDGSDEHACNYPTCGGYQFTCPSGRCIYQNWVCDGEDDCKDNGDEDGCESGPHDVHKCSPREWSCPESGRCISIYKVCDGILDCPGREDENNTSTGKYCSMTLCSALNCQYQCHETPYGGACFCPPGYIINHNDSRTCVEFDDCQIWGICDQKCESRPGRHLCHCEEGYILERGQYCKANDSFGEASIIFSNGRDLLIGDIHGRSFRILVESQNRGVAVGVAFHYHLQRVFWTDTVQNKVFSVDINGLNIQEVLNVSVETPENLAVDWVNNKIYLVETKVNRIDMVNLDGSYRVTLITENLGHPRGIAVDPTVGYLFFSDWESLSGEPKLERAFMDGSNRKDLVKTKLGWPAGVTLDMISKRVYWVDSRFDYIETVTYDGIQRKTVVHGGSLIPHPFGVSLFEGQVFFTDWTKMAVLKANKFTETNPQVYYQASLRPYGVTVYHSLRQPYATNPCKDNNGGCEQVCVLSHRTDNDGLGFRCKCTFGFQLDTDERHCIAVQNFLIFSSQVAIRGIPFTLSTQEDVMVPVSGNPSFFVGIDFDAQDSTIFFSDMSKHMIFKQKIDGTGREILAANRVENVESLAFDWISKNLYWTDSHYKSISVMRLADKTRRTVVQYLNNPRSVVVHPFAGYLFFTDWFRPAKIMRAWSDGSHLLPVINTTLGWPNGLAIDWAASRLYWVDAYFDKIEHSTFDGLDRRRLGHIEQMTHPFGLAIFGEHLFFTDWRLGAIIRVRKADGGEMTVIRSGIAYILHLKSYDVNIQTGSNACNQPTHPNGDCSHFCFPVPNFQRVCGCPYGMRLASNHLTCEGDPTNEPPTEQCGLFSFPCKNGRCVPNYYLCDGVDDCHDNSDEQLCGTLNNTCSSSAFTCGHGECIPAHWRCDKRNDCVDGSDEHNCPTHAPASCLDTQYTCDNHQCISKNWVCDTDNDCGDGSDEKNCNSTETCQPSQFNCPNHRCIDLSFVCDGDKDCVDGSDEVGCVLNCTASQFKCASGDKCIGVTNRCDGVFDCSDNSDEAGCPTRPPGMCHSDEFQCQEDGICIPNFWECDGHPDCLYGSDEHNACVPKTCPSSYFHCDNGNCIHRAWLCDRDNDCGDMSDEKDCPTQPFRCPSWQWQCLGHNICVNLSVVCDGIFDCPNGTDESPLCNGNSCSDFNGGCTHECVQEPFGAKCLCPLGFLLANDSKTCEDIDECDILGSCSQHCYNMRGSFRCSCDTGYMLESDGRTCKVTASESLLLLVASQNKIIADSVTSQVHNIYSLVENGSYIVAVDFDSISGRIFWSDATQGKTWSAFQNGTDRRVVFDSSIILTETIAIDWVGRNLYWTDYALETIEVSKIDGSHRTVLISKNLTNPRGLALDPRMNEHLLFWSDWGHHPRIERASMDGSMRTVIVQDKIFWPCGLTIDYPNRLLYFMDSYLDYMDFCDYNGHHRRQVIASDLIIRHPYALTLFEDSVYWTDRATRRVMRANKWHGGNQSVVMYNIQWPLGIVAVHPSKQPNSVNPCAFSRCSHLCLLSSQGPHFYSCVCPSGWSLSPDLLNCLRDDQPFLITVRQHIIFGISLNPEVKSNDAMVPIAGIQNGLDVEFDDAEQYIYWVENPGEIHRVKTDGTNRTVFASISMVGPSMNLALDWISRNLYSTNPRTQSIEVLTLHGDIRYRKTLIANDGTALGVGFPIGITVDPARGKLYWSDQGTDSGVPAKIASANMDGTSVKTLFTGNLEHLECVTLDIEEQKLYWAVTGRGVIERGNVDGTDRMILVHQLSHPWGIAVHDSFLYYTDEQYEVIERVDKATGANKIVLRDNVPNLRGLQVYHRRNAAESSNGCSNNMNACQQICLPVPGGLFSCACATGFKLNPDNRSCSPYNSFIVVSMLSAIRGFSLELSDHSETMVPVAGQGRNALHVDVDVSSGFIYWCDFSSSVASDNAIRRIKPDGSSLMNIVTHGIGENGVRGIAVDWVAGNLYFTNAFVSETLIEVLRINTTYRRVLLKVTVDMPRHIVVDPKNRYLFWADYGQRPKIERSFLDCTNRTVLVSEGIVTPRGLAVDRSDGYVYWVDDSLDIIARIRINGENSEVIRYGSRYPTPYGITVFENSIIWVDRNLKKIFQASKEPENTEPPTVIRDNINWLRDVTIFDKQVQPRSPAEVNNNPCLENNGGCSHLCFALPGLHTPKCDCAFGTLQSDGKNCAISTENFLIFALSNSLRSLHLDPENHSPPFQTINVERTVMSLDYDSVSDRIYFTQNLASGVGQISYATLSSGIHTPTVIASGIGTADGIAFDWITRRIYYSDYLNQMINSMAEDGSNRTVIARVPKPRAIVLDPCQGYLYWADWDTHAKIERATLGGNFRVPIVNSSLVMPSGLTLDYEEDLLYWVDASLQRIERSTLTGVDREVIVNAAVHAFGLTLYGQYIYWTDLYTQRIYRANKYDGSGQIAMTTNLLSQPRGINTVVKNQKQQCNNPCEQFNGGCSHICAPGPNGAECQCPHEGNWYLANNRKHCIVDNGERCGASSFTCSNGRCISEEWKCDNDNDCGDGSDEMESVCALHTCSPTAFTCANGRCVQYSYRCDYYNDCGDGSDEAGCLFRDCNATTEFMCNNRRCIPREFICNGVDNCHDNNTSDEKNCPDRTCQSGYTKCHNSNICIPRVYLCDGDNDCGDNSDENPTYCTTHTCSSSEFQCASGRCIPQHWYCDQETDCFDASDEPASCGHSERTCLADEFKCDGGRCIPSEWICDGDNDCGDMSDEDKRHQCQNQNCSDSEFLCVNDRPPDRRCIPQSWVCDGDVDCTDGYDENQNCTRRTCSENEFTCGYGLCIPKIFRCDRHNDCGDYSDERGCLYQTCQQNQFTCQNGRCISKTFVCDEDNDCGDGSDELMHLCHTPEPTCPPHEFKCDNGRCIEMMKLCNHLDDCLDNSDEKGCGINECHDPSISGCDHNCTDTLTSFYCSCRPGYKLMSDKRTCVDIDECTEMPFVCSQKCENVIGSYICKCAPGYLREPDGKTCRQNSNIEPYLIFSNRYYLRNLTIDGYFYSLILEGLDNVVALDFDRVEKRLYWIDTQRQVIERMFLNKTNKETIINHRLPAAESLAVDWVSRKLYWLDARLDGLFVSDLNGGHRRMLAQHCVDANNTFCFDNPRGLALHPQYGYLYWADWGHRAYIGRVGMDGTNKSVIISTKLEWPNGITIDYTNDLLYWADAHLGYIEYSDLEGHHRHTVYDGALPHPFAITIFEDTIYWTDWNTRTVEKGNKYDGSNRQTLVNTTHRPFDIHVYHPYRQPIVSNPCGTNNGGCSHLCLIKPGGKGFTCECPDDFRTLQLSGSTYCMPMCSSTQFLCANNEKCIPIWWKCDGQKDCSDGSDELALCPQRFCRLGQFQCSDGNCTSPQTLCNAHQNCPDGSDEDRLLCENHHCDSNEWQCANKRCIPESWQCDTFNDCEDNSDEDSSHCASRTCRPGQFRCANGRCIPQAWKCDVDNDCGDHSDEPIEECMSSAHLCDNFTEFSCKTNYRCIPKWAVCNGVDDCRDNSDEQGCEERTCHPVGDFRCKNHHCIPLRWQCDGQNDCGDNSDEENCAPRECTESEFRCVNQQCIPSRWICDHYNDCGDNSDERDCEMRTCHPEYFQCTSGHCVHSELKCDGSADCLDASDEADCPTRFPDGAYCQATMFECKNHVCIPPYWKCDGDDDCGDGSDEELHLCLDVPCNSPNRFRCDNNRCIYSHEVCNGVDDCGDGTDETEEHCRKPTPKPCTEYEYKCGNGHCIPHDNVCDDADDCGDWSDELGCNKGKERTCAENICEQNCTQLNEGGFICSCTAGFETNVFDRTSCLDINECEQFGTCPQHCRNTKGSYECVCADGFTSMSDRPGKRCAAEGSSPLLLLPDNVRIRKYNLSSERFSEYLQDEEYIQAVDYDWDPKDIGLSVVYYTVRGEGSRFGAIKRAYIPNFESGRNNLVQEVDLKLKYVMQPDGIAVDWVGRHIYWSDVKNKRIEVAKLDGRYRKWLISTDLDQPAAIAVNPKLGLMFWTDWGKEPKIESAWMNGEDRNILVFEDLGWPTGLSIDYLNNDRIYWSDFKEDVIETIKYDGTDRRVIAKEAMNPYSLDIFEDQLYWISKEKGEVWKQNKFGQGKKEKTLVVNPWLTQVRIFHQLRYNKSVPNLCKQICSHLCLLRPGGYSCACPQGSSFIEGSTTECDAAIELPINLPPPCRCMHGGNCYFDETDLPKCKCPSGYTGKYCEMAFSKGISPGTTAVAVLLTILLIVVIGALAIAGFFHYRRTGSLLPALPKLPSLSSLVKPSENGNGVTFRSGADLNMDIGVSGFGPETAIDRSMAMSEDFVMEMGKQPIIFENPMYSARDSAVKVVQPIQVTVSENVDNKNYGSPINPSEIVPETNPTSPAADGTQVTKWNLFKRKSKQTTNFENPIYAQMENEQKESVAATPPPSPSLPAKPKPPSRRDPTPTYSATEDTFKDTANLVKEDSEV

Compound	Affinity of binding to megalin [1]	tissue uptake at 24 h [2, 3] [%ID/g]	dose excreted at 24 h [2, 3] [%]	tissue uptake at 24 h ([2]; Control mice (C57BL/6J)) [%ID/g]	dose excreted at 24 h ([2]; Control mice (C57BL/6J)) [%]
RAP: 39 kDa chaperone-like protein that binds tightly to megalin	high affinity in the nanomolar range				
CC(C)[C@@H]1NC(=O)[C@H](CCCCN)NC(=O)[C@@H](Cc2c[nH]c3ccccc23)NC(=O)[C@H](Cc2ccc(O)cc2)NC(=O)[C@H](Cc2ccccc2)N(C)C(=O)[C@H](CCSCC(=O)NC[C@H](N)C(=O)N[C@@H](CCCCN)C(=O)N[C@@H](CS)C(=O)N[C@@H](CCCCN)C(N)=O)NC1=O [Tc-99m-NeoTect ®, metal not drawn] (cyclo([hCys](X1)[NMeF]Y[dW]KV))		99.3	40.4	261	23.6
